Consider 4 molecules from patent US20040253647A1, “Cell-based high-throughput screening methods” (priority 2001, published 2004).

What all share (format): cell-based, murine
Experiment [1] concerns APP holoprotein and all CTFs in L/APP cells. Put plainly: APP/total CTF ELISA (C1/6.1 capture, C2/7.1 detection) on L/APP cell lysates. The following applies: for cellular APP levels (APP/total CTF) relative to untreated control cells: 10 μg/ml for 6 hours (FIG. 10A). On the procedure: (§1) Cell lines, cDNA constructs, and transfections. Ltk-cells (a murine fibroblast-like cell line; (S. Kit et al., 1967, J. Virol., 1(1): 238-240) were maintained at 37° C. and 5% CO2 in high glucose DMEM, (Celigro, Hedon, Va.) supplemented to contain 10% fetal bovine serum (Gemini, Woodland, Calif.), 2 mM glutamax I (Gibco/BRL, Gaithersburg, Md.), and penicillin/streptomycin (Celigro). cDNAs encoding human APP695 and human rab5 were inserted into the mammalian expression vector pcDNA3 (Invitrogen, Carlsbad, Calif.). Following transfection using lipofectin (manufacturer's protocol; Gibco/BRL), stable L cell lines overexpressing APP695 were selected in 400 μg/ml G418 (Gemini) and screened for expression. Transient transfections with rab5 were done using lipofectAMINE (Gibco/BRL) or fugene (Boehringer-Mannheim, Indianapolis, Ind.) according to the manufacturers' protocol.
(§2) Sandwich ELISAs. Sandwich ELISAs using the antibodies as presented in Table 1 were performed essentially as has been reported (C. Janus et al. Id.; R. Rozmahel et al., Neurobiology of Aging, 23:187-194; and P. M. Mathews et al., 2002, J. Biol. Chem., 277: 5299-5307), with modifications to detect cell-associated APP metabolites. The wells of Nunc-Immuno PIates (Nunc A/S, Roskilde, Denmark) were coated overnight at 4° C. using 20 μg/ml of C1/6.1 and the remaining protein binding sites were blocked by incubating with 1% Block Ace (Yukijirushi Milk, Sapporo Japan) in PBS (200 μl/well) for 4 hours at room temperature.
(§3) For the βCTF ELISA, a synthetic peptide was prepared, i.e., […], (SEQ ID NO:1), that contains both the JRF/AβN/25 epitope (SEQ ID NO:4) and the C1/6.1 epitope (SEQ ID NO:2), (see Table I). For the APP/total CTF ELISA, a glutathione S-transferase fusion protein containing the C-terminal 99 residues of human APP (GST-βPP672-770; (K. Islam and E. Levy, 1997, Am. J. Pathol. 151(1):265-71) was prepared. This fusion protein contains both the C1/6.1 and C2/7.1 epitopes. These standards, prepared as stock solutions, were dissolved in DMSO, stored at −70° C., and were further diluted in buffer containing 20 mM Na phosphate, 2 mM EDTA,. 400 mM NaCl, 0.2% BSA, 0.05% CHAPS, 0.4% Block Ace and 0.05% NaN3, pH 7.0 immediately, prior to use.
(§4) ELISA plates were incubated overnight at 4° C. with samples and standards. Samples, as described herein, were cell lysates prepared in 1% Triton X-100®, 140 mM NaCl, 25 mM Tris (pH 7.4), 0.5 mM EDTA, and protease inhibitors. Lysates were vortexed briefly, allowed to rest on ice for 30 minutes, and centrifuged at 6,000 rpm in an Eppendorf centrifuge. The supernatant was used for the ELISA. Following overnight binding of APP and APP metabolites to the capture antibody (C/1/6.1), the wells were washed twice with phosphate buffered saline (PBS) containing 0.5% Triton X-100®/0.05% Tween-20 followed by two washes with PBS. A solution containing 20 mM Na phosphate, 2 mM EDTA, 400 mM NaCl, and 1% BSA, pH 7.0 was then added to the wells for 1 hour at room temperature.
(§5) APP and cell-associated APP metabolites were detected by incubating for 4 hours at room temperature with horseradish peroxidase (HRP)-conjugated C2/7.1 or JRF/AβN/25 diluted in 20 mM Na phosphate, 2 mM EDTA, 400 mM NaCl, 1% BSA, pH 7.0. Thereafter, the wells were again washed twice with phosphate buffered saline (PBS) containing 0.5% Triton X-100®/0.05% Tween-20, followed by two washes with PBS. ELISA plates were developed using a color reaction (TMB Microwell Peroxidase Substrate System, Kirkegaard & Perry, Gaithersburg, MD) and the OD450 was read. ELISA signals are reported as the mean ±SE of two or more wells in femtomoles per ml relative to standard.
(§6) Preparation of cell lysates for ELISA. Cells were seeded into 6-well dishes and allowed to settle overnight. […]

Experiment [2] concerns Aβ1-40 secreted by L/APP cells. Put plainly: Aβ1-40 ELISA of growth media. Conditions: 10 μg/ml, 6 hour incubation (FIG. 10C). On the procedure: L/APP cells were plated at equal density and APP expression was induced. Cells were then incubated for 6 hours without treatment, or with the addition of 10 μg/ml cyclohexamide or 10 μg/ml 3-methyl adenine (3MA). APP/total CTF levels (FIG. 10A) and βCTF levels (FIG. 10B) in cell lysates were then determined by ELISA. Aβ1-40 (FIG. 10C) and Aβ1-42 (FIG. 10D) levels secreted into the growth media during this 6 hour incubation were determined by ELISA (C. Janus et al., 2000, Nature, 408(6815):979 982). Data are expressed as a percentage of, the level seen in untreated control cells for each assay.
In addition, Aβ levels in the growth media were examined from these test cells. […] Again, the reduction in Aβ generation obtained with cyclohexamide treatment is due to non-specific cytotoxicity, while the reduction in Aβ generation obtained following 3MA treatment is linked to a specific reduction in βCTF generation.

For experiment [3], the system named is βCTF levels in L/APP cells (L cell line overexpressing human APP695). Put plainly: βCTF ELISA (C1/6.1 capture, JRF/AβN/25 detection) on cell lysates. Conditions: for reduction of βCTF levels relative to control: 10 μg/ml for 6 hours (FIG. 10B); for βCTF levels: control 2.7 (FIG. 8A). On the procedure:
as §1, §2, §3, §4, §5, §6

For experiment [4], the system named is APP holoprotein, αCTF and βCTF in L/APP cells. Description: Metabolic pulse-chase labeling and immunoprecipitation of APP and CTFs. The following applies: for levels of αCTFs and βCTFs after 1 hour chase (C1/6.1 immunoprecipitation): 10 μM, 3 hours pretreatment plus pulse and chase (FIG. 1). On the procedure:
Metabolic labeling, immunoprecipitation and Western blot analysis. To detect APP and CTFs, 5×10^5 cells were seeded onto 35-mm diameter tissue culture dishes followed by induction of human APP695 expression with 20 mM butyrate for 24 hours (P. M. Mathews et al., 1992, J. Cell. Biol., 118(5):1027-1040; P. M. Mathews et al., 2000 Mol Med., 6(10)878-891). Cultures were methionine/cysteine starved for 20 minutes, pulse-labeled for 15 minutes with 100 μCi/ml TRANS^35S-LABEL (Dupont-NEN), washed, and chased in complete medium containing 2 mM unlabeled methionine (P. M. Mathews et al., 1992, J. Cell. Biol., 118(5):1027-1040). Calpain inhibitors, as described herein, were added to the growth medium 3 hours prior to methionine/cysteine starvation and then throughout pulse-labeling and chase.
Cell lysates (prepared in 1% Triton X-100, 140 mM NaCl, 25 mM Tris pH 7.4, 0.5 mM EDTA, 10 mM methionine and protease inhibitors; (P. M. Mathews et al., 1992, J. Cell. Biol., 118(5):1027-1040; A. Beggan et al., 1996, J. Biol. Chem., 271(34):20895-20902) were subjected to immunoprecipitation with various monoclonal antibodies as described in Example 2. Immunoprecipitated proteins were sized by SDS-PAGE and labeled proteins were visualized by exposure to x-ray film and analyzed quantitatively using a Storm 840 phosphorimager (Molecular Dynamics/Amersham Biosciences, Sunnyvale, Calif. and/or by scan analysis (NIH Image).
To determine whether a particular monoclonal antibody detected APP holoprotein and/or αCTF and/or βCTF or both, L cells overexpressing human APP695 (L/APP cells) were metabolically labeled for 15 minutes, and then were chased for 1 hour (FIG. 1, lanes 1-6).
Thus, in addition to control conditions, cells were treated for 3 hours prior to, as well as during, the pulse and chase periods with the indicated calpain inhibitors (FIG. 1, lanes 7-18) to increase the levels of metabolically labeled CTFs prior to immunoprecipitation. Equal volumes of detergent lysates prepared from the pulse and chase periods were subjected to immunoprecipitation with each of the monoclonal antibodies and labeled APP species were resolved on 4-20% gradient SDS-PAGE.
The pulse-chase experiment shown in FIGS. 2A and 2B was designed to determine if C1/6.1 was able to detect other species of CTFs (e.g. the γCTF). Accordingly, L/APP cells were pulse-labeled for 15 minutes and chased for the indicated times up to 6 hours prior to immunoprecipitation of lysates with C1/6.1.

Experiment [5] relates to APP holoprotein and all CTFs in parental L cells. Put plainly: APP/total CTF ELISA on parental L cell lysates. Conditions: 10 μM calpeptin 6 hours (FIG. 7B). The method, then:
as §1
Sandwich ELISAs. […]
APP and cell-associated APP metabolites were detected by incubating for 4 hours at room temperature with horseradish peroxidase (HRP)-conjugated C2/7.1 or JRF/AβN/25 diluted in 20 mM Na phosphate, 2 mM EDTA, 400 mM NaCl, 1% BSA, pH 7.0. […] ELISA plates were developed using a color reaction (TMB Microwell Peroxidase Substrate System, Kirkegaard & Perry, Gaithersburg, MD) and the OD450 was read. […]

Another experiment deals with APP CTFs in L/APP cells. Description: Western blot analysis using C1/6.1. Conditions: 10 μm calpeptin 6 hours (FIG. 5A). On the procedure: For Western blot analysis, protein concentration in cell lysates was determined (BioRad DC Protein Assay, BioRad, Rockville Center, N.Y.), and equal amounts of proteins were separated by SDS-PAGE and transferred to PVDF membrane. Membranes were incubated in C1/6.1 (2 μg/ml) overnight, washed, and incubated with HRP-conjugated goat anti-mouse IgG for 1.5 hours. Membranes were incubated in ECL substrate (Amersham, Arlington Heights, Ill.) and exposed to x-ray film.
In this rab5 overexpression experiment, L/APP cells were transiently-transfected with no DNA (FIG. 5A, lanes 1 and 2), or rab5 cDNA (FIG. 5A, lanes 3-5) and the levels of APP holoprotein and CTFs were determined by Western blot analysis using C1/6.1 (FIG. 5A).

Where [6] appears, read: 75 μg/ml cyclohexamide 6 hours, versus control.

Peptide text beside a SMILES is read from it. * marks the point of attachment. Cbz = O=C(OCc1ccccc1)*

Regarding `Cn1cnc(N)c2ncnc1-2` [3MA, 3-methyl adenine], in experiment [1], the “cellular APP levels (APP/total CTF) relative to untreated control cells” value is recorded as “did not reduce cellular APP levels”. The “Aβ1-40 levels in growth media relative to control” value in experiment [2] is on record as “reduction in Aβ1-40 levels relative to control”. Moreover, the “reduction of βCTF levels relative to control” value in experiment [3] turned out to be 50%.

For the molecule `CC(C)[C@H](NC(=O)OCc1ccccc1)C(=O)N[C@H](C=O)Cc1ccccc1` [calpain inhibitor III] (Cbz-Val-Phe-aldehyde), the “levels of αCTFs and βCTFs after 1 hour chase (C1/6.1 immunoprecipitation)” value in experiment [4] was “substantial and apparently proportionate increase in the levels of both αCTFs and βCTFs”.

On to `CCCC[C@@H](C=O)NC(=O)[C@H](CC(C)C)NC(=O)OCc1ccccc1` [calpeptin], for which the “APP/total CTF ELISA signal” value in experiment [5] is “increased the signal in the L cells, although not to a statistically significant degree”; in experiment [1] (10 μM calpeptin 6 hours (FIG. 7B)) it was “greatly increased the ELISA signal”. For the same molecule, the “change in APP/total CTF levels” value in experiment [1] (10 μM calpeptin 6 hours (FIG. 8B)) is “smaller relative increase in APP/total CTF levels”. In experiment [4] (10 μM calpeptin (FIG. 2B)), the “generation of α and βCTFs during the initial 1 hour of chase” value is “substantially increased the generation of both α and βCTFs”. Besides, the “turnover of CTFs” value in experiment [4] (10 μM calpeptin (FIG. 2B)) is “did not appear to reduce the turnover of CTFs”. The “turnover of APP holoprotein” value in experiment [4] (10 μM calpeptin, chase up to 6 hours (FIG. 2A)) was “unchanged”. Also, in experiment [4], the “levels of αCTFs and βCTFs after 1 hour chase (C1/6.1 immunoprecipitation)” value is “substantial and apparently proportionate increase in the levels of both αCTFs and βCTFs”. Also, the “levels of CTFs by Western blot” value in the experiment with APP CTFs in L/APP cells was “greatly increased the levels of CTFs detected”. In experiment [3] (10 μM calpeptin 6 hours), this molecule showed a βCTF levels of 5.4 fmol/mL. Moreover, the “amount of βCTFs detected by ELISA” value in experiment [3] (10 μM calpeptin 6 hours, untreated 16.1 (FIG. 5B)) turned out to be 26.0 fmol/mL. The “βCTF levels detected by ELISA” value in experiment [3] (10 μM calpeptin for 6 hours, untreated 5.8±0.3 (FIG. 4)) amounted to 10.0 ± 0.6 fmol/mL.

For the molecule `C[C@@H]1C[C@@H]([C@H](O)CC2CC(=O)NC(=O)C2)C(=O)[C@@H](C)C1` [cyclohexamide], the “cellular APP levels (APP/total CTF) relative to untreated control cells” value in experiment [1] was “cyclohexamide treatment did”. The “APP/total CTF levels” value in experiment [1] (75 μg/ml cyclohexamide 6 hours, control 608 (FIG. 8B)) turned out to be 74 fmol/mL. In addition, the “reduction of APP/total CTF levels” value in experiment [1] (setting [6]) stood at 88%. Also, the “Aβ1-40 levels in growth media relative to control” value in experiment [2] is “reduction in Aβ1-40 levels relative to control”. For the same molecule, the “reduction of βCTF levels relative to control” value in experiment [3] is on record as “reduced βCTF levels somewhat more”. The βCTF levels in experiment [3] (75 μg/ml cyclohexamide 6 hours) was found to be 0.6 fmol/mL. Further, the “reduction of βCTF levels” value in experiment [3] (setting [6]) is reported as 78%.
